Measured values taken from patent publication US20160096016A1, “METHODS AND SYSTEMS FOR REDUCING INFLAMMATION BY NEUROMODULATION AND ADMINISTRATION OF AN ANTI-INFLAMMATORY DRUG” (priority 2008, published 2016).
Entries after “also recorded” stand apart in the source; their conditions may differ.

Columns and labels:
[1] = test system: LPS-stimulated spleen cells; assay: TNF production by LPS-stimulated spleen cells; format: cell-based, BALB/c mice; conditions: 5×10^6 cell/well, LPS 500 ng/mL, 4 hours; increasing concentrations; FIG. 7A
Procedure: (§1) In this example, differing concentrations of Paraoxon were included in various individual wells (having 5×10^6 cell/well) with a total volume of 250 microliters/well, and stimulated for 4 hours with LPS (500 ng/mL).

spleen cells = assay: Viability of LPS-stimulated spleen cells; conditions: concentrations of Paraoxon used in FIG. 7A; FIG. 7B
Procedure: as §1

TNF production = conditions: endotoxemia; nicotine 2 mg/kg i.p. 30 minutes prior to endotoxin
Procedure: Adult male BALB/c mice 8 to 12 weeks-old (20-25 g; Taconic) and adult male Sprague Dawley rats 8 to 12 weeks-old (250-300 g, Charles River Laboratories) were housed at 25° C. on a 12-hour light/dark cycle, and let acclimatize for one week before experiments were conducted. Water and regular rodent chow were available ad libitum. Experiments were performed under protocols approved by the Institutional Animal Care and Use Committee of the Feinstein Institute for Medical Research, North Shore-LIJ Health System.
Endotoxin (LPS from E. coli, 0111:B4, Sigma-Aldrich) was injected to animals (10 mg/kg, i.p. corresponding to a LD75 dose). Blood and spleens were harvested 10, 30, 60 or 120 minutes after LPS administration. We used ELISA to determine TNF concentration in serum (R&D Systems). Spleens were either snap frozen for further immunofluorescence analysis or disrupted in PBS plus protease inhibitor cocktail (Complete mini, Roche) with a tissue homogenizer (Polytron 3100, Kinematica). TNF content in spleen tissue was determined by ELISA and normalized to protein concentration (Protein Assay, BioRad). In some experiments, PBS or nicotine (Sigma-Aldrich) was injected 30 minutes (2 mg/kg, i.p.) prior to endotoxin administration. Animals were then euthanized 60 minutes later and spleens were harvested for TNF immunofluorescence or TNF quantification in tissue homogenates.

Row | Structure (SMILES) | TNF production by LPS-stimulated spleen cells [1] | toxicity / cell viability (spleen cells) | TNF production by TNF-producing splenic macrophages (TNF production)
1 | CCOP(=O)(OCC)Oc1ccc([N+](=O)[O-])cc1 [Paraoxon] | dose-dependent inhibition of TNF; also recorded: dose-dependently attenuated TNF levels; also recorded: the greater the inhibition of TNF | no significant toxicity; also recorded: without affecting cell viability; also recorded: no significant loss of viability | –
2 | CN1CCCC1c1cccnc1 (stereo not drawn) [nicotine] | – | – | significantly attenuates TNF production
